# From PubChem BioAssay (NCI)
# “And” between values parts separate entries of the source, which are not always exact repeats. Equal values may be shown once.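 These data come from cells grown in 96-well plates and exposed to compound for 48 hours at five concentrations. GI50: concentration for 50% inhibition of growth. At the TGI there is no net growth.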
# Tests used:
# Assay in all cases: growth of human tumour cells (NCI), 48 h
# [1] = test system: BT-549 breast
# [2] = test system: IGROV1 ovarian
# [3] = test system: MOLT-4 leukemia
# [4] = test system: NCI-H226 lung
# [5] = test system: NCI/ADR-RES ovarian
# [6] = test system: OVCAR-4 ovarian
# [7] = test system: PC-3 prostate
# [8] = test system: UACC-62 melanoma
# [9] = test system: UO-31 renal
# [10] = test system: CCRF-CEM leukemia
SMILES,TGI [1] [µM],TGI [2],TGI [3] [µM],TGI [4],TGI [5] [µM],TGI [6],TGI [7] [µM],TGI [8],TGI [9],TGI [10] [µM],GI50 [10],GI50 [2],GI50 [3],GI50 [5],GI50 [6],GI50 [8],GI50 [9],GI50 [4] [µM],GI50 [1] [µM],GI50 [7] [µM]
C(=N\Nc1nnc2c(n1)[nH]c1ccccc12)/c1cccnc1,> 100,> 100 µM,> 100,> 100 µM,> 100,> 100 µM,> 100,> 100 µM,> 100 µM,,,,,,,,,,,
Cn1cnc([N+](=O)[O-])c1Sc1ccccn1,,> 100 µM,> 100,> 100 µM,,> 100 µM,,> 100 µM,> 100 µM,> 100,,,,,,,,,,
O=[N+]([O-])c1cccc([N+](=O)[O-])c1S(=O)(=O)c1ccccc1,13.6,4.2 µM,,36.8 µM,31.4,,32.3,,3.5 µM,,,,,,,,,,,
Cc1c[nH]c2c1C13CC1CN(C(=O)c1cc4cc(NC(=O)c5cc6ccccc6o5)ccc4[nH]1)C3=CC2=O (configuration not stated),,13.5 ng/mL,0.0031,< 0.001 µM,,< 0.001 µM,,< 0.001 µM,,0.0682,> 1.17 ng/mL,> 1.17 ng/mL,> 1.17 ng/mL,> 1.17 ng/mL,> 1.17 ng/mL,> 1.17 ng/mL,> 1.17 ng/mL,,,
COc1ccc2cccc(C(=O)c3ccc(C)c4c3CCC4)c2c1,,99.2 µM,97.2,> 100 µM,,> 100 µM,,56.5 µM,82.4 µM,> 100,,,,,,,,,,
CC#C[C@@]1(O)CCCC[C@@H]1O,,> 100 µM,> 100,> 100 µM,,> 100 µM,,> 100 µM,> 100 µM,> 100,,,,,,,,,,
Cn1c2c([N+](=O)[O-])[se]nc2c(=O)n1-c1ccc([N+](=O)[O-])cc1,,2.59 µM,,7.91 µM,,0.909 µM,,3.25 µM,3.59 µM,> 100,,,,,,,,,,
C/C1=C\[C@H](C)C[C@H](C)OC(=O)C[C@H](c2ccc(O)cc2)NC(=O)[C@@H](Cc2c(Br)[nH]c3ccccc23)N(C)C(=O)[C@H](C)NC(=O)[C@@H](C)C1,0.0669,0.265 µM and 0.0602 µM,4.54,0.661 µM and 0.0703 µM,2.02,0.95 µM and 3.11 µM,,0.9 µM and 1.44 µM,0.351 µM and 0.238 µM,> 23.7,0.114 µM,0.023 µM,0.0764 µM,0.0706 µM,0.0969 µM,0.0414 µM,0.0968 µM,0.0268,,
O=C(c1cc(O)ccc1O)c1ccccc1C(Cl)(Cl)Cl,,> 100 µM,> 100,> 100 µM,,> 100 µM,,> 100 µM,> 100 µM,> 100,,,,,,,,,,
CCOC(=O)C1N(S(=O)(=O)c2ccc(C)cc2)CCC12c1ccccc1N(C(C)=O)C2C(/C=C/C(=O)OC)=C/C(=O)OC (configuration not stated),,> 100 µM,,> 100 µM,,> 100 µM,,> 100 µM,> 100 µM,> 100,,,,,,,,,,
NCCCCCS(=O)(=O)O,,> 100 µM,> 100,,,> 100 µM,,> 100 µM,> 100 µM,> 100,,,,,,,,,,
CCOC(=O)c1sc(-c2ccc(OS(=O)(=O)c3cccs3)c(C=O)c2)nc1C,3.19,3.41 µM,4.02,4.93 µM,6.17,,4.81,2.92 µM,5.13 µM,5.38,2.16 µM,1.29 µM,1.47 µM,1.8 µM,,1.43 µM,1.73 µM,1.88,1.68,1.26
O=c1[nH]cc(CS(=O)(=O)Cc2c[nH]c(=O)[nH]c2=O)c(=O)[nH]1,> 100,> 100 µM,> 100,> 100 µM,> 100,> 100 µM,> 100,> 100 µM,> 100 µM,,,,,,,,,,,
S=c1nc(-c2nc(=S)[nH]c3c2CCCCCCCCCC3)c2c([nH]1)CCCCCCCCCC2,> 100,> 100 µM,> 100,> 100 µM,> 100,> 100 µM,> 100,> 100 µM,> 100 µM,,,,,,,,,,,
O=NC1c2cccc3cccc(c23)C1N=O (configuration not stated),15.6,3.19 µM,> 100,,7.21,3.56 µM,25.4,,11.7 µM,4.25,,,,,,,,,,
Cc1ccc2nc3c(C)c(Cl)c(=O)cc-3sc2c1,> 100,> 100 µM,41.3,64 µM,,> 100 µM,> 100,17.4 µM,67.4 µM,56.8,,,,,,,,,,
COC(=O)C(=O)C1(CCC(C)=O)c2ccccc2-c2ccccc21,,> 100 µM,> 100,> 100 µM,,> 100 µM,,> 100 µM,> 100 µM,> 100,,,,,,,,,,
Nc1ccc(-c2nc3ccc4[nH]ncc4c3c3c2CCCC3)cc1F,7,11.2 µM,5.82,5.5 µM,16.6,23.5 µM,,6.71 µM,5.53 µM,12.2,1.5 µM,0.407 µM,1.27 µM,1.86 µM,1.69 µM,1.19 µM,1.01 µM,0.686,1.28,
N/C(=N\NS(=O)(=O)c1ccccc1)Oc1ccc(Cl)cc1,,> 100 µM,> 100,> 100 µM,,> 100 µM,,> 100 µM,> 100 µM,> 100,,,,,,,,,,
CCOC(=O)C(C)(C)Oc1ccc2c(=O)cc(-c3ccccc3)oc2c1,,78.4 µM,32.5,47 µM,,,,33.7 µM,> 100 µM,43.6,,,,,,,,,,
C[Si](C)(C)/C=C/CCC(C=O)(CCCl)c1ccccc1 (configuration not stated),,> 100 µM,53.8,,,,,55.5 µM,> 100 µM,> 100,,,,,,,,,,
CCOC1OCCCC1Br (configuration not stated),,> 100 µM,> 100,> 100 µM,> 100,> 100 µM,> 100,> 100 µM,> 100 µM,> 100,,,,,,,,,,
Cc1cc(NS(=O)(=O)c2ccc(Nc3c4ccccc4nc4c(C(=O)Nc5ccc(S(=O)(=O)N=C(N)N)cc5)cccc34)cc2)no1,,> 100 µM,> 100,,,> 100 µM,,> 100 µM,> 100 µM,> 100,,,,,,,,,,
